Experimental findings from patent publication US20210253562A1, “ACYLSUFONAMIDE COMPOUNDS USEFUL AS EP3 RECEPTOR ANTAGONISTS” (Janssen Pharmaceutica NV, priority 2018, published 2021) are described below.

Experiment [1] has as its target T1, EP3 membrane (EP3 receptor) (Homo sapiens, UniProt P43115).
T1 construct: purchased Millipore HTS092M
T1 sequence (P43115 1-390): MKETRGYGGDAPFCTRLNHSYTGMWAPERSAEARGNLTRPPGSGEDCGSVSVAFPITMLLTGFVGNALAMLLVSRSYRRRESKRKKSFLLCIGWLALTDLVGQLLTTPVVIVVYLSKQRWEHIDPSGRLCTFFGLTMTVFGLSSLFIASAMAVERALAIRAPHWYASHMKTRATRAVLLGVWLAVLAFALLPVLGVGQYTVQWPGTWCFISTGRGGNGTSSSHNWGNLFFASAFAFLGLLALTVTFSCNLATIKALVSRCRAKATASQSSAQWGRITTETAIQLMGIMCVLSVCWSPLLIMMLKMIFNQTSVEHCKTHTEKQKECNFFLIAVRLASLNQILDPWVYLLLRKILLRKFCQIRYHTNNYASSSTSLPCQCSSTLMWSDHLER
As to the kind of experiment: [3H]-PGE2 binding; EP3 competition binding (SPA). In a few lines:
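Ki derived from one-site nonlinear regression of scintillation proximity counts after 2 h room-temperature equilibration. Serially diluted (1:3) compounds competed against [3H]-PGE2 (2 nM) for EP3 receptor membranes (2 μg/well) in pH 7.4 Tris buffer with 10 mM MgCl2, 1 mM EDTA, 0.1% DMSO.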

The target in experiment [2] is T2, CHO cells over-expressing the EP3 receptor (Homo sapiens, UniProt P43115).
T2 construct: expressed in transfected cells; host or cells: CHO cells
T2 sequence (P43115 1-390): T1 sequence (P43115 1-390)
As to the kind of experiment: CHO cell cAMP assay; EP3 cAMP antagonist dose response (sulprostone reference), HTRF. The format is cell-based. As to conditions: sulprostone 700 nM (EC80) and FSK 2 μM (EC70); read-out: CHO_cAMP IC50. The essentials: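 EP3-overexpressing CHO cells pre-incubated with test compound, then stimulated 30 min at 37 °C with FSK (2 μM, EC70) plus sulprostone (700 nM, EC80); antagonism seen as restored cAMP. cAMP measured by HTRF 665/615 ratio, converted via on-plate standard curve. IC50 from Hill fit of 11-point dosing.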
(Changes in cAMP serve as a functional read-out for many G protein-coupled receptors.)

By Ki is commonly meant a dissociation constant, usually derived from enzyme kinetics or from competition with a known ligand. A word on the IC50: it is the concentration needed to halve the response being measured.

The structures appear in SMILES notation. Like-named read-outs stand apart in the source and are kept apart here.

`O=C(NC/C(F)=C1/CCCc2onc(Cc3ccc(Cl)cc3Cl)c21)NS(=O)(=O)c1cc(Cl)c(Cl)s1` [Compound #128, (E)-4,5-dichloro-N-((2-(3-(2,4-dichlorobenzyl)-6,7-dihydrobenzo[d]isoxazol-4(5H)-ylidene)-2-fluoroethyl)carbamoyl)thiophene-2-sulfonamide] yielded a Ki in experiment [1] of 532 nM. In experiment [2], the IC50 came to 8400 nM.

In experiment [1] (unit nM), `O=C(NC/C=C1\CCCc2cnn(-c3ccc(C(F)(F)F)cc3)c21)NS(=O)(=O)c1cc(Cl)c(Cl)s1` [Compound #85, (E)-4,5-dichloro-N-((2-(1-(4-(trifluoromethyl)phenyl)-1,4,5,6-tetrahydro-7H-indazol-7-ylidene)ethyl)carbamoyl)thiophene-2-sulfonamide] came in with a Ki of 0.4 nM. Also, the IC50 in experiment [2] is 4 nM.

As for `O=C(NS(=O)(=O)c1cc(Cl)c(Cl)s1)OC/C=C1\COCc2cnn(Cc3ccc(Cl)cc3Cl)c21` [Compound #46, (Z)-2-(1-(2,4-dichlorobenzyl)-1,4-dihydropyrano[4,3-c]pyrazol-7(6H)-ylidene)ethyl ((4,5-dichlorothiophen-2-yl)sulfonyl)carbamate], the affinity in experiment [1] corresponds to a Ki of 2 nM. Besides, in experiment [2], the IC50 amounted to 8 nM.

As to `O=C(C/C=C1\CCCc2cnn(Cc3ccc(Cl)cc3Cl)c21)NS(=O)(=O)c1nc2ccccc2s1` [Compound #21], the affinity in experiment [1], expressed as Ki, was 58 nM. Further, in experiment [2], the IC50 turned out to be 330 nM.

Compound `O=C(NC/C(F)=C1\CCCc2cnn(Cc3ccc(Cl)cc3Cl)c21)NS(=O)(=O)c1cc2ccccc2o1` [Compound #111, (Z)—N-((2-(1-(2,4-dichlorobenzyl)-1,4,5,6-tetrahydro-7H-indazol-7-ylidene)-2-fluoroethyl)carbamoyl)benzofuran-2-sulfonamide] came in with a Ki in experiment [1] of 59 nM. Further, in experiment [2], the IC50 was found to be 399 nM.

Compound `O=C(NC/C=C1\CCCc2cnn(Cc3ccc(Cl)cc3Cl)c21)NS(=O)(=O)c1cccs1` [Compound #10, (E)-N-((2-(1-(2,4-dichlorobenzyl)-1,4,5,6-tetrahydro-7H-indazol-7-ylidene)ethyl)carbamoyl)thiophene-2-sulfonamide] had a Ki in experiment [1] of 15 nM. Moreover, the IC50 in experiment [2] amounted to 28 nM.

For the compound `O=C(NC/C=C1\CCCn2nnc(-c3ccc(C(F)(F)F)cc3)c21)NS(=O)(=O)c1cc(Cl)c(Cl)s1` [Compound #155, (E)-4,5-dichloro-N-((2-(3-(4-(trifluoromethyl)phenyl)-6,7-dihydro-[1,2,3]triazolo[1,5-a]pyridin-4(5H)-ylidene)ethyl)carbamoyl)thiophene-2-sulfonamide], the Ki in experiment [1] amounted to 2 nM. In experiment [2], the IC50 is 4 nM.

In turn, `Cc1cc(S(=O)(=O)NC(=O)NC/C(F)=C2\CCCc3cnn(Cc4ccc(Cl)cc4Cl)c32)sc1Cl` [Compound #149, (Z)-5-chloro-N-((2-(1-(2,4-dichlorobenzyl)-1,4,5,6-tetrahydro-7H-indazol-7-ylidene)-2-fluoroethyl)carbamoyl)-4-methylthiophene-2-sulfonamide] gave a Ki in experiment [1] of 2 nM. Also, the half-maximal inhibitory concentration (IC50) in experiment [2] turned out to be 6 nM.

In the case of `O=C(NC/C(F)=C1\COCc2[nH]nc(Cc3ccc(Cl)cc3Cl)c21)NS(=O)(=O)c1cc(Cl)c(Cl)s1` [Compound #147, (E)-4,5-dichloro-N-((2-(3-(2,4-dichlorobenzyl)-1,7-dihydropyrano[3,4-c]pyrazol-4(5H)-ylidene)-2-fluoroethyl)carbamoyl)thiophene-2-sulfonamide], in experiment [1] (unit nM), the Ki worked out at 0.4 nM. For the same compound, the IC50 in experiment [2] was determined as 5 nM.

`COc1ccc(Br)cc1S(=O)(=O)NC(=O)CC/C=C1\CCCc2cnn(Cc3ccc(Cl)cc3Cl)c21` [Compound #41, (E)-N-((5-bromo-2-methoxyphenyl)sulfonyl)-4-(1-(2,4-dichlorobenzyl)-1,4,5,6-tetrahydro-7H-indazol-7-ylidene)butanamide] gave a Ki in experiment [1] of 6 nM. In addition, in experiment [2], the IC50 turned out to be 9 nM.

In the case of `O=C(NC/C(F)=C1\CCCc2cnn(Cc3ccc(C(F)(F)F)cc3)c21)NS(=O)(=O)c1cc(Cl)c(Cl)s1` [Compound #134, (Z)-4,5-dichloro-N-((2-fluoro-2-(1-(4-(trifluoromethyl)benzyl)-1,4,5,6-tetrahydro-7H-indazol-7-ylidene)ethyl)carbamoyl)thiophene-2-sulfonamide], in experiment [1], the Ki worked out at 7 nM. For the same compound, the IC50 in experiment [2] came to 52 nM.

For the compound `O=C(NC/C(F)=C1/CCCc2cnn(-c3ccc(C(F)(F)F)cc3)c21)NS(=O)(=O)c1ccc2c(c1)OCCO2` [Compound #117, (E)-N-((2-fluoro-2-(1-(4-(trifluoromethyl)phenyl)-1,4,5,6-tetrahydro-7H-indazol-7-ylidene)ethyl)carbamoyl)-2,3-dihydrobenzo[b][1,4]dioxine-6-sulfonamide], the Ki in experiment [1] is greater than 10000 nM. For the same compound, in experiment [2], the IC50 was greater than 20000 nM.

In the case of `O=C(NC/C=C1\CCCc2cnn(C3CCN(c4ccc(F)cc4)CC3)c21)NS(=O)(=O)c1ccc(Cl)cc1` [Compound #122, (E)-4-chloro-N-((2-(1-(1-(4-fluorophenyl)piperidin-4-yl)-1,4,5,6-tetrahydro-7H-indazol-7-ylidene)ethyl)carbamoyl)benzenesulfonamide], in experiment [1], the affinity corresponds to a Ki of 6 nM. In addition, the IC50 in experiment [2] came to 45 nM.

Consider `O=C(NC/C(F)=C1/c2c(cnn2Cc2ccc(Cl)cc2Cl)CCC1F)NS(=O)(=O)c1ccc(Cl)cc1` (stereo not drawn) [Compound #101, (E)-4-chloro-N-((2-(1-(2,4-dichlorobenzyl)-6-fluoro-1,4,5,6-tetrahydro-7H-indazol-7-ylidene)-2-fluoroethyl)carbamoyl)benzenesulfonamide], for which the affinity in experiment [1] corresponds to a Ki of 53 nM. Besides, in experiment [2], the IC50 was 144 nM.

With `O=C(NC/C(F)=C1\CCCc2cnn(Cc3ccc(C(F)(F)F)cc3)c21)NS(=O)(=O)c1cc2ccccc2s1` [Compound #133, (Z)—N-((2-fluoro-2-(1-(4-(trifluoromethyl)benzyl)-1,4,5,6-tetrahydro-7H-indazol-7-ylidene)ethyl)carbamoyl)benzo[b]thiophene-2-sulfonamide], in experiment [1], the inhibition constant Ki came out at 289 nM. The IC50 in experiment [2] is 1260 nM.

Turning to `O=C(NC/C(F)=C1\COCc2cnn(-c3ccc(C(F)(F)F)cc3)c21)NS(=O)(=O)c1ccc(Cl)cc1` [Compound #118, (E)-4-chloro-N-((2-fluoro-2-(1-(4-(trifluoromethyl)phenyl)-1,4-dihydropyrano[4,3-c]pyrazol-7(6H)-ylidene)ethyl)carbamoyl)benzenesulfonamide], in experiment [1], the Ki came to 2000 nM. In experiment [2], the IC50 was determined as 16000 nM.

`O=C(NC/C=C1\CCCc2cnn(-c3cccc(C(F)(F)F)c3)c21)NS(=O)(=O)c1cc(Cl)c(Cl)s1` [Compound #92, (E)-4,5-dichloro-N-((2-(1-(3-(trifluoromethyl)phenyl)-1,4,5,6-tetrahydro-7H-indazol-7-ylidene)ethyl)carbamoyl)thiophene-2-sulfonamide]: in experiment [1], the Ki is 17 nM. Also, the IC50 in experiment [2] was 214 nM.

`O=C(NC/C(F)=C1\CCCc2onc(-c3ccc(Cl)cc3)c21)NS(=O)(=O)c1ccc(Cl)cc1` [Compound #97, (Z)-4-chloro-N-((2-(3-(4-chlorophenyl)-6,7-dihydrobenzo[d]isoxazol-4(5H)-ylidene)-2-fluoroethyl)carbamoyl)benzenesulfonamide] registered an inhibition constant (Ki) in experiment [1] of 4900 nM. Also, in experiment [2], the IC50 is greater than 20000 nM.
